# Data as given in ChEMBL document CHEMBL1201862, “PubChem BioAssay data set” (2004).
# Where “and” joins values, the source holds several entries; their conditions need not be identical. Identical values can stand only once. Calls of active or inactive are those of the source.
# Legend:
# Streptokinase A = molecular target: T1, Streptokinase A (Streptococcus pyogenes serotype M1, UniProt P10520); experiment: S. pyogenes streptokinase expression inhibitors, potency, dose response, plasminogen activation absorbance, OD405 (AID 1914); assay type: functional, Streptococcus pyogenes M1 GAS;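 note: secreted streptokinase activity via plasminogen activation per viability signal from cell pellet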
# T1 sequence (P10520 whole entry): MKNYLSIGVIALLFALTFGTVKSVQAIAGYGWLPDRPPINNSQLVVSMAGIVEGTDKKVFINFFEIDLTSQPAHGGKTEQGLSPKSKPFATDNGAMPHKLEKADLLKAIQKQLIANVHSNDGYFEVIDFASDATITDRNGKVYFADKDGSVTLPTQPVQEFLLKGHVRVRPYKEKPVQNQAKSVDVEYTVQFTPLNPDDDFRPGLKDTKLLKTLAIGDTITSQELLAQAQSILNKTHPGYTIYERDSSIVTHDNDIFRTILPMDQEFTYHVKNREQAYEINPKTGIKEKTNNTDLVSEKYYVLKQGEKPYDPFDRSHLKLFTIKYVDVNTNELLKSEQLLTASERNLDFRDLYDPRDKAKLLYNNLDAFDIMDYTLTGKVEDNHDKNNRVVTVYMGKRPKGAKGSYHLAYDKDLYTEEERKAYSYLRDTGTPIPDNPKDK
# Streptococcus = experiment: Group A Streptococcus viability loss, dose response, counter-screen for streptokinase expression inhibitor project, luminescence, BacTiterGlo (AID 1915); assay type: functional, organism-based;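 note: potency for reduction of bacterial viability or growth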
# [1] = Vero cell cytotoxicity, dose response, cytotoxicity control for Vif-APOBEC3G degradation inhibitor project, Vero cells (AID 1117358); assay type: functional; settings: Human immunodeficiency virus 1, Vero
# [2] = Luminescence Cell-Based Dose Response HTS to Identify Inhibitors of 5'UTR Stem-Loop Driven Prion Protein mRNA Translation in H4 Neuroglioblastoma Cells. [Related pubchem assays: 1827 (Project Summary), 1813 (Primary HTS)]; assay type: functional
# [3] = system: Streptococcus sp. 'group A'; experiment: growth inhibition of control SK(-) GAS strain, dose response, counter-screen for streptokinase expression inhibitor project, luminescence, kanamycin, BacTiterGlo, confirmation (AID 1900); assay type: functional, organism-based
# [4] = inhibitors of SNCA 5'UTR-driven reporter translation, confirmation, H4 neuroglioma cells, luminescence (AID 1988); assay type: functional, cell-based
# [5] = inhibitors of firefly luciferase expression or activity, dose response, H4 neuroglioma cells, luminescence (AID 1990); assay type: functional, cell-based
# [6] = molecular target: T2, Probable nicotinate-nucleotide adenylyltransferase (Staphylococcus aureus (strain N315), UniProt P65502); assay type: functional, Staphylococcus aureus subsp. aureus N315;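 for IC50 Mean: confirmatory dose-response retesting of NadD inhibitor hits first found in an ultra-high-throughput screen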
# Galanin receptor type 2 = Galanin receptor type 2 (Homo sapiens, UniProt O43603); experiment: Dose Response cell-based high-throughput screening assay to identify agonists of galanin receptor 2 (GALR2). [Related pubchem assays: 864 ]; assay type: functional
# [7] = inhibitors of Vif binding to APOBEC3G peptide, primary screen, biochemical, TR-FRET, GST-Vif 1-94, biotin-A3G peptide, dose response retest (AID 1117319); assay type: functional;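 note: TR-FRET signal of purified GST-Vif binding a biotinylated A3G peptide; inhibitors lower the FRET signal by blocking Vif and A3G binding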
# [8] = molecular target: T2, Probable nicotinate-nucleotide adenylyltransferase; assay type: functional, Staphylococcus aureus subsp. aureus N315; settings: read-out: IC50_Mean
# [9] = inhibitors of intracellular T. cruzi replication, confirmation, NIH3T3 host cells, beta-gal luminescence (AID 2044); assay type: functional, cell-based;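 note: intracellular parasites grown in NIH/3T3 mouse fibroblasts as host cells; luminescent beta-galactosidase reporter signal from transgenic T. cruzi replicating inside host cells; inhibitors lower the luminescence signal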
# [10] = control 3'UTR Renilla luciferase suppression, dose response, counter-screen for Shn3 inhibitor project, cell-based, Clone20-Shn3RL, cherry-picked (AID 624133); assay type: functional
# [11] = HepG2 cell cytotoxicity, dose response, cytotoxicity control for Shn3 inhibitor project, CellTiter-Glo, cherry-picked (AID 624134); assay type: functional, cell-based
# [12] = Shn3 3'UTR reporter inhibitors, dose response, cell-based, Clone20 osteoblasts, firefly luciferase, cherry-picked (AID 624132); assay type: functional;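 note: firefly luciferase luminescence from reporter carrying the Shn3 3'UTR in osteoblasts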
# [13] = THP-1 cell cytotoxicity, dose response, cytotoxicity control for Vif-APOBEC3G degradation inhibitor project, THP-1 cells (AID 1117359); assay type: functional; settings: Human immunodeficiency virus 1, THP-1
# [14] = cytotoxicity toward NIH3T3 fibroblasts, dose response, counter-screen, cell-based, ATP luminescence, mouse fibroblasts (AID 2010); assay type: functional;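 note: cells exposed to compound for about 90 hours before reading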
# INS1 = experiment: beta cell apoptosis inhibitors, cytokine rescue, dose response, luminescence, retest (AID 449756); assay type: functional, cell-based; settings: Rattus norvegicus;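 note: cell death triggered by IL-1 beta plus TNF-alpha plus IFN-gamma mixture; protective hits raise ATP signal compared with cytokine alone wells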
# [15] = molecular target: T3, Short transient receptor potential channel 4 (Mus musculus, UniProt Q9QUQ5); experiment: mouse TRPC4 channel inhibitors, dose response, cell-based, HEK293 TRPC4/mu-opioid, Fluo-4 calcium (AID 434942); assay type: functional;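 note: potency of inhibitors blocking the TRPC4 calcium response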
# T3 sequence (Q9QUQ5 whole entry): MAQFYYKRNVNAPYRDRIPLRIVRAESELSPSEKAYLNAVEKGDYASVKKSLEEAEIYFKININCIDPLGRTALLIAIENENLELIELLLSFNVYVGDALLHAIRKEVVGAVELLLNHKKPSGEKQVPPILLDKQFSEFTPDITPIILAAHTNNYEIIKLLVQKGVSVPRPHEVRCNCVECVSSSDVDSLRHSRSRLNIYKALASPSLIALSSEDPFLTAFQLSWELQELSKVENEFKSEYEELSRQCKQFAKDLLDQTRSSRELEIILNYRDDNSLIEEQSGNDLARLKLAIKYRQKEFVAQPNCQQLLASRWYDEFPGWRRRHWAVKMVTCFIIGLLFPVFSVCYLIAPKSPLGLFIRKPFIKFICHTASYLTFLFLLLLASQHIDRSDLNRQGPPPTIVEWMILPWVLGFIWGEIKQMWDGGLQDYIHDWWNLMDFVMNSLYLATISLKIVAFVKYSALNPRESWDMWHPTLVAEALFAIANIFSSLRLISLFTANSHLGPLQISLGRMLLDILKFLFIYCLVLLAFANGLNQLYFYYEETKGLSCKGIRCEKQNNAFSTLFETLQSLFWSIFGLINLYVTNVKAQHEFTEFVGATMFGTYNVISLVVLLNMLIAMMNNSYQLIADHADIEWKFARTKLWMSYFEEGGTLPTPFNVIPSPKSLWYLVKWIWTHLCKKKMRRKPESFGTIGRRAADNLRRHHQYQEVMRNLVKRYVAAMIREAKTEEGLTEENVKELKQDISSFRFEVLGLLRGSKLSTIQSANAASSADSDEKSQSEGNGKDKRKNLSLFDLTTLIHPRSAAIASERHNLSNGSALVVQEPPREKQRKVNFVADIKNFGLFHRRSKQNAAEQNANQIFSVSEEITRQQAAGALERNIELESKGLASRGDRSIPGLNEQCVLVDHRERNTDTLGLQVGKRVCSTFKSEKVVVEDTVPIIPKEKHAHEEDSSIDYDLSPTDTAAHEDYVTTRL
# 14-3-3 protein gamma = 14-3-3 protein gamma (Homo sapiens, UniProt P61981); experiment: modulators of 14-3-3 gamma client binding – dose response (AID 711); assay type: functional
# fMet-Leu-Phe receptor = molecular target: T4, fMet-Leu-Phe receptor (Homo sapiens, UniProt P21462); experiment: FPR ligands, dose response (AID 519); assay type: functional
# T4 sequence (P21462 whole entry): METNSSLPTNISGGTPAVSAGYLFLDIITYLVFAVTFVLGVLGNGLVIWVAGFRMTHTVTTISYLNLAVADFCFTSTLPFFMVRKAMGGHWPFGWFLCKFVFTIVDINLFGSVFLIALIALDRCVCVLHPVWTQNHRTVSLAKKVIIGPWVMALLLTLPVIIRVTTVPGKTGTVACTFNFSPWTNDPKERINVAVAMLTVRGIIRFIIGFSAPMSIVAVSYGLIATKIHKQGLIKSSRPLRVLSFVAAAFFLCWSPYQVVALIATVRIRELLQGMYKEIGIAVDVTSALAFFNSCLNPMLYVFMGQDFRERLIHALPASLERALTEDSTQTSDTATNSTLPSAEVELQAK
# [16] = molecular target: Mitogen-activated protein kinase 10 (Homo sapiens, UniProt P53779); experiment: Dose response biochemical screening assay for inhibitors of c-Jun N-Terminal Kinase 3 (JNK3). [Related pubchem assays: 746 ]
# [17] = molecular target: Peroxisome proliferator-activated receptor gamma/Nuclear receptor corepressor 2 (Homo sapiens, UniProt P37231+Q9Y618); experiment: Counterscreen for NR2E3 inverse agonists: TR-FRET-based biochemical high throughput dose response assay to identify inverse agonists of the interaction between peroxisome proliferator-activated receptor gamma (PPARg) and nuclear receptor co-repressor 2 (NCOR2).; assay type: functional
# [18] = molecular target: Photoreceptor-specific nuclear receptor (Homo sapiens, UniProt Q9Y5X4); experiment: NR2E3 inverse agonists, dose response, biochemical, TR-FRET (AID 463256); assay type: functional
# [19] = C. albicans growth with fluconazole, confirmation, fluorescence, retest (AID 2467); assay type: functional, cell-based
# [20] = NIH-3T3 fibroblast cytotoxicity, dose response, cytotoxicity control, cell-based, fluorescence, Alamar Blue, secondary assay (AID 2327); assay type: functional;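 note: NIH-3T3 mouse fibroblasts cultured with fluconazole at 8 µg/mL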
# [21] = half-maximal inhibitory concentration for glucagon-like peptide-1 release, STC-1 cell line, dose-response (AID 1117345); assay type: functional, cell-based
# [22] = HeLa 4N DNA content increase, dose response, cell-based, IC50 (AID 1117351); assay type: functional
# [23] = molecular target: Beta-2 adrenergic receptor (Homo sapiens, UniProt P07550); experiment: beta2AR agonists driving receptor internalization, dose response, cell-based, FAP fluorogen, flow cytometry, cherry pick 1 (AID 588763); assay type: functional
# [24] = molecular target: T5, Serine/threonine-protein phosphatase (Candida dubliniensis (strain CD36 / CBS 7987 / NCPF 3949 / NRRLY-17841) (Yeast), UniProt B9W6M3); experiment: calcineurin pathway inhibitors in yeast reporter, dose response, S. cerevisiae, CDRE-lacZ, luminescence, secondary (AID 2388); assay type: functional, cell-based;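 note: yeast reporter cells carrying a calcineurin-responsive lacZ construct stimulated with calcium chloride; luminescent beta-galactosidase reporter signal in whole cells rather than isolated phosphatase activity; potency for inhibition where a drop in reporter signal means calcineurin blockade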
# T5 sequence (B9W6M3 whole entry): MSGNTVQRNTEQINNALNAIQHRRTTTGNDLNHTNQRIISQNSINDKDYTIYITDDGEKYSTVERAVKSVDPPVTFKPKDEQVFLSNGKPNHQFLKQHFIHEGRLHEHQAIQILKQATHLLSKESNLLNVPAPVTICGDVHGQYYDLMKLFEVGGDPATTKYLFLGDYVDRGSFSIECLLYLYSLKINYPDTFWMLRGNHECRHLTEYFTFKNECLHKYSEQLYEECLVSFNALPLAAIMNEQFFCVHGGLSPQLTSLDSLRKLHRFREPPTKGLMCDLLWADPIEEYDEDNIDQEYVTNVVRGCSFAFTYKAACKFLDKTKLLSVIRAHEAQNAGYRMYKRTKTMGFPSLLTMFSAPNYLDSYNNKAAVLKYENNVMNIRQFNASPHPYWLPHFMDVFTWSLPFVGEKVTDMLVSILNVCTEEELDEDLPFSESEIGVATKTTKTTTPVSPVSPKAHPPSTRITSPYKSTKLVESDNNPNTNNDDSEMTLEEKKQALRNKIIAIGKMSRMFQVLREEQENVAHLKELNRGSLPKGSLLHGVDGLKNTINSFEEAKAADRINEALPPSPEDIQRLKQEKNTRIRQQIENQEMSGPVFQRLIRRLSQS
# Cytochrome P450 2D6 = Cytochrome P450 2D6 (Homo sapiens, UniProt P10635);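 note: CYP2D6 member of a cytochrome P450 panel assay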
# [25] = HeLa 2N DNA content increase, dose response, cell-based, IC50 (AID 1117349); assay type: functional
# [26] = molecular target: ATP-dependent molecular chaperone HSP82 (Candida albicans (strain WO-1) (Yeast), UniProt C4YTQ8); experiment: loss of DOC-induced GRE-beta-galactosidase reporter signal, dose response, Hsp90 inhibitor project, S. cerevisiae, luminescence (AID 2400); assay type: functional, cell-based;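 note: beta-galactosidase luminescence from glucocorticoid response element reporter as proxy for Hsp90 function; inhibitor potency where signal loss means Hsp90 inhibition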
# Cytochrome P450 2C19 = Cytochrome P450 2C19 (Homo sapiens, UniProt P33261); experiment: Cytochrome panel assay with activity outcomes. Panel member name: p450-cyp2c19 Compounds with AC50 equal or less than 10 uM are considered active; assay type: functional; settings: read-out: AC50
# [27] = molecular target: Heat shock protein HSP 90-alpha (Homo sapiens, UniProt P07900); assay type: functional, organism-based
# [28] = Glucagon-like peptide 1 release potency, NCI-H716 cell line, dose-response, half-maximal inhibitory concentration (AID 1117344); assay type: functional, cell-based
# Cytochrome P450 2C9 = Cytochrome P450 2C9 (Homo sapiens, UniProt P11712)
# Sequence of Cytochrome P450 2C9 (P11712 whole entry): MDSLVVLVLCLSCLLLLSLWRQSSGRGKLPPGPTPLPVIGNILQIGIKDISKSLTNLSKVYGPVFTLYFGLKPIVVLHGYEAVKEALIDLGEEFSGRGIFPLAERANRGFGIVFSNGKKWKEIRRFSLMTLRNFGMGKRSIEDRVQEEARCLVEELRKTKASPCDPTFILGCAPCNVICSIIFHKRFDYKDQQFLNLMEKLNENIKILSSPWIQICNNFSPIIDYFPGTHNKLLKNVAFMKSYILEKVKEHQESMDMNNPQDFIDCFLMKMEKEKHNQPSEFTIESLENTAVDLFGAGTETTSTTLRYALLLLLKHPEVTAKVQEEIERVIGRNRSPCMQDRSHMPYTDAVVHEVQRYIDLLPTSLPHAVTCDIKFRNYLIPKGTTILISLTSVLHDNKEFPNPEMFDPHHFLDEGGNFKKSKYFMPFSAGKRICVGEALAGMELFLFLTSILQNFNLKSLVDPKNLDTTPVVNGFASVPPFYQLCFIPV
# Sequence of Cytochrome P450 2C19 (P33261 whole entry): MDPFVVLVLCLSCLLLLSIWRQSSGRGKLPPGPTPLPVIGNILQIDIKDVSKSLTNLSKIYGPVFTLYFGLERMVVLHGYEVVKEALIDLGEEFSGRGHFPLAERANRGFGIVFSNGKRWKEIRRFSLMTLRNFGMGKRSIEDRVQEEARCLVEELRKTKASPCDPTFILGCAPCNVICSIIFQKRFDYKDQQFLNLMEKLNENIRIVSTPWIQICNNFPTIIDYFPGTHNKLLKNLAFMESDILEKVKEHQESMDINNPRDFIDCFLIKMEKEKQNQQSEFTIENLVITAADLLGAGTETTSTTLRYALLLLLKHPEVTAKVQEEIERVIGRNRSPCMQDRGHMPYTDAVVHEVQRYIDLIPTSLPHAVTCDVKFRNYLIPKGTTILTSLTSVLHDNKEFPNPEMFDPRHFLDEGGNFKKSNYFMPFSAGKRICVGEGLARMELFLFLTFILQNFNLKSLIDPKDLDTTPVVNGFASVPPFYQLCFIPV
# Sequence of Cytochrome P450 2D6 (P10635 whole entry): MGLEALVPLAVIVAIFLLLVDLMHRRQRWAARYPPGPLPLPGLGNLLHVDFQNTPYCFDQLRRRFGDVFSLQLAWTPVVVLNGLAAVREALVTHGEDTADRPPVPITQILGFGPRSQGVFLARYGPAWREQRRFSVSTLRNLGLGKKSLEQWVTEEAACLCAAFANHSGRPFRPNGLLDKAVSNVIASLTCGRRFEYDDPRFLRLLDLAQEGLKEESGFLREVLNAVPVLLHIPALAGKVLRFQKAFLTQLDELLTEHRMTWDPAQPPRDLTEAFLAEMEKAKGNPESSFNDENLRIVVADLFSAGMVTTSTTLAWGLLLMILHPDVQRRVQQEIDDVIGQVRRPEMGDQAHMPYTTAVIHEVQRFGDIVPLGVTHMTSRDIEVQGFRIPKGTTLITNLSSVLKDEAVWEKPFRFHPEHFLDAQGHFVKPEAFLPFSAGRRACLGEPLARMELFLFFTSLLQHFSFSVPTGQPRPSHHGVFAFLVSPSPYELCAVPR
# T2 sequence (P65502 whole entry): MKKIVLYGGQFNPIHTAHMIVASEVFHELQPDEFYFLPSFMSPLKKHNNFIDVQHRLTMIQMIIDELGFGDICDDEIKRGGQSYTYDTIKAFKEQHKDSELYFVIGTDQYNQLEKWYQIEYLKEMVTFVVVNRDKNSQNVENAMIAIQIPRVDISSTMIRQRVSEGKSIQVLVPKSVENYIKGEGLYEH
# Sequence of Galanin receptor type 2 (O43603 whole entry): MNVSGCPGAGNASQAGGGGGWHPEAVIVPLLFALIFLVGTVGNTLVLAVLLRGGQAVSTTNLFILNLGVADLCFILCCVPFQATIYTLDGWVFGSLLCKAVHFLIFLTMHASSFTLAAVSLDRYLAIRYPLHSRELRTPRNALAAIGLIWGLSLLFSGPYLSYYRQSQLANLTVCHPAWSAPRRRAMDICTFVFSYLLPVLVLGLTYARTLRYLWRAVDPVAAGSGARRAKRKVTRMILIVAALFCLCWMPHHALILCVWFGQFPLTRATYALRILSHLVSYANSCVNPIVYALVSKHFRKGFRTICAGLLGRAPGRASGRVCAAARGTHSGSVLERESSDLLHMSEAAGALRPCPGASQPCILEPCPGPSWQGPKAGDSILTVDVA
# Sequence of Beta-2 adrenergic receptor (P07550 whole entry): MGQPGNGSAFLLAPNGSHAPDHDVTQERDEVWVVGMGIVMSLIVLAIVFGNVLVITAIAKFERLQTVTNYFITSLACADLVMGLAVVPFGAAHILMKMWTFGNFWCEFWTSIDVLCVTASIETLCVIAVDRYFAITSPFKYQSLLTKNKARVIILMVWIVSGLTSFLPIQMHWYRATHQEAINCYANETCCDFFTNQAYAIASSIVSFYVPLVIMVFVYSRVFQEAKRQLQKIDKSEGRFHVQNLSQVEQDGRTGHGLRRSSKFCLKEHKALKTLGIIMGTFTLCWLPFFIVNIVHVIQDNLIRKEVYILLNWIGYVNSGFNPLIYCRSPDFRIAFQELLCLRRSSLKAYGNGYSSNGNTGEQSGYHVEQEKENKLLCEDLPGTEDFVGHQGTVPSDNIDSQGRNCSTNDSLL
# Sequence of 14-3-3 protein gamma (P61981 whole entry): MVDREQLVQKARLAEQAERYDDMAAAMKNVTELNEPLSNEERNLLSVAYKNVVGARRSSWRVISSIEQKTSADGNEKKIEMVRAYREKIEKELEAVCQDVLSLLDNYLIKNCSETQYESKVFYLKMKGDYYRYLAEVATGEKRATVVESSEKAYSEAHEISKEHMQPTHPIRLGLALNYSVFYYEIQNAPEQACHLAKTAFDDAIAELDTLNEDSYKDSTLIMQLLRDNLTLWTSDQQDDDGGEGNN
# Sequence of ATP-dependent molecular chaperone HSP82 (C4YTQ8 whole entry): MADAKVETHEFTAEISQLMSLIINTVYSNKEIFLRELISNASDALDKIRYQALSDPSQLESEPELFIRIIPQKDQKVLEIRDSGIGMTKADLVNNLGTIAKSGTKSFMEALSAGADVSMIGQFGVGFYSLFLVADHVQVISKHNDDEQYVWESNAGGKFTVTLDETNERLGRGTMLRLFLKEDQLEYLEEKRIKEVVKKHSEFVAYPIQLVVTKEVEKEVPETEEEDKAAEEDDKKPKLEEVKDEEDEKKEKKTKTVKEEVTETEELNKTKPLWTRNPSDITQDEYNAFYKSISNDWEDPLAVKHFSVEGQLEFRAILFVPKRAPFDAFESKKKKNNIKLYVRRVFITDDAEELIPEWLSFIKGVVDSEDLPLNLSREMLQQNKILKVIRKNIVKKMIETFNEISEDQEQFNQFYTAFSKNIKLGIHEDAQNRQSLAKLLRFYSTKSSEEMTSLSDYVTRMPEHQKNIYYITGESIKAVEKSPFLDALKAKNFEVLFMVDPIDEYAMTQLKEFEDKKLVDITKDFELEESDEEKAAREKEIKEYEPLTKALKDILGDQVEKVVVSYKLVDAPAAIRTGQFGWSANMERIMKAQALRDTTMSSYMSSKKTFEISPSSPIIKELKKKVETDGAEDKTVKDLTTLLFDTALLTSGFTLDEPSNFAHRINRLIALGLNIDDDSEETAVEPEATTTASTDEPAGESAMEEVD
# Sequence of Photoreceptor-specific nuclear receptor (Q9Y5X4 whole entry): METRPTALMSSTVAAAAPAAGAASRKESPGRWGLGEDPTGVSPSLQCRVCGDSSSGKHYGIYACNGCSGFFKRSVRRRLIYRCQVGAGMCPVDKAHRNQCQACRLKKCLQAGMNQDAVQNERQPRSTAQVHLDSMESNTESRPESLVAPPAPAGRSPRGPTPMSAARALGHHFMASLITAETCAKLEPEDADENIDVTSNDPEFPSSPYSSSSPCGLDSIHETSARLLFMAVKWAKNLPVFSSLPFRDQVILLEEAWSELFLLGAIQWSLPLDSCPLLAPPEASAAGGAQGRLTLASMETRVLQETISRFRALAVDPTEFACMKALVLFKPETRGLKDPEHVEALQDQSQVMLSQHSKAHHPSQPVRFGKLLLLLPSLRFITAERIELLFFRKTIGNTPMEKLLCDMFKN
# Sequence of Mitogen-activated protein kinase 10 (P53779 whole entry): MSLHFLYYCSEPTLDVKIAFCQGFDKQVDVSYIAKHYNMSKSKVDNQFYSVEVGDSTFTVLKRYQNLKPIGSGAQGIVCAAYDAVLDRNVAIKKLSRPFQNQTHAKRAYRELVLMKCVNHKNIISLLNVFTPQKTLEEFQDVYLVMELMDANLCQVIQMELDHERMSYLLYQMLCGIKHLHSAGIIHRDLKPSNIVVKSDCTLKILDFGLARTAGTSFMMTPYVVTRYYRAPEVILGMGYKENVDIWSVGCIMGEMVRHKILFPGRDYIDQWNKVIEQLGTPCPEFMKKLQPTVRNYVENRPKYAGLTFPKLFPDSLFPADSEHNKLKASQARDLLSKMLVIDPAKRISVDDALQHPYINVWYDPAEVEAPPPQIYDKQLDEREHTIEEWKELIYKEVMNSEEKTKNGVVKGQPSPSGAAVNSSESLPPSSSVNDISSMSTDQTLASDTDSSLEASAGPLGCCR
structure (smiles),measurement,setting,value
CC(C)c1ccc(-c2[nH]c(N3CCCC3)nc3nnc(N)c2-3)cc1,EC50,Streptokinase A,> 150 µM (not active)
same,EC50,Streptococcus,> 150 µM (not active)
same,CC50,[1],> 40 µM (active)
same,EC50,[2],> 120 µM (not active)
same,EC50,[3],103 µM (active)
same,EC50,[4],12.9 µM (active)
same,EC50,[5],> 120 µM (not active)
Cc1cccc2sc(NNC(=O)c3ccc(S(=O)(=O)N4CC(C)CC(C)C4)cc3)nc12 (configuration not stated),IC50,[6],8.16 µM (active)
same,EC50,Galanin receptor type 2,> 55.7 µM (not active)
same,IC50,[7],> 100 µM (active)
same,EC50,Streptococcus,4.98 µM (active)
same,IC50,[8],42.1 µM (active)
same,EC50,[9],1.22 µM (active)
same,AC50,[10],5.72 µM (active)
same,AC50,[11],5.61 µM (active)
same,AC50,[12],2.57 µM (active)
same,CC50,[13],2.27 µM (active)
same,EC50,[14],7.47 µM (active)
same,EC50,[3],1.18 µM (active)
same,AC50,INS1,1.73 µM (active)
COc1ccc(Nc2cc(C)nc3ccccc23)cc1,EC50,[15],2.99 µM (active)
same,IC50,14-3-3 protein gamma,> 50 µM (not active)
CCCOc1ccc(C2C(C(=O)c3ccc(C)o3)=C(O)C(=O)N2CCCn2ccnc2)cc1 (configuration not stated),Ki,fMet-Leu-Phe receptor,13.8 µM (active)
same,IC50,[16],19.7 µM (not active)
COc1cc2ccccc2cc1C(=O)Nc1ccc2oc(=O)ccc2c1,IC50,[17],2.86 µM (active)
same,IC50,[18],2.28 µM (active)
Clc1ccccc1C(c1ccccc1)(c1ccccc1)n1ccnc1 [CLOTRIMAZOLE],EC50,[19],0.628 µM (active)
same,EC50,Streptokinase A,> 150 µM (not active)
same,EC50,[20],11.6 µM (active)
same,IC50,[21],> 40 µM (inactive)
same,EC50,Streptococcus,7.15 µM (active)
same,IC50,[22],> 10 µM (inactive)
same,EC50,[23],4.69 µM (active)
same,EC50,[24],> 180 µM (inactive)
same,AC50,Cytochrome P450 2D6,10 µM (active) and 39.8 µM (inconclusive)
same,IC50,[25],> 10 µM (inactive)
same,EC50,[26],> 150 µM (inactive)
same,AC50,Cytochrome P450 2C19,10 µM (active) and 7.94 µM (inconclusive)
same,EC50,[3],4.3 µM (active)
same,AC50,[27],< 0.195 µM (active)
same,IC50,[28],20.2 µM (inactive)
same,AC50,Cytochrome P450 2C9,1 µM (active) and 316 nM (active)
